Measurements as given in ChEMBL document CHEMBL5696441 (Nat Chem Biol, 2011).

Tests used:
[1] = molecular target: Ephrin type-B receptor 2 (Homo sapiens) (UniProt P29323); assay: Inhibition of human EPHB2 assessed as residual activity at 1 uM using poly(Ala,Glu,Lys,Tyr)6:2:5:1 as substrate in presence of 33P-ATP by ProQinase assay relative to control
[2] = molecular target: Tyrosine-protein kinase Fes/Fps (Homo sapiens) (UniProt P07332); assay: Inhibition of FES (unknown origin) assessed as remaining activity at 1 uM by Kinome scan method relative to control
[3] = molecular target: Leukocyte tyrosine kinase receptor (Homo sapiens) (UniProt P29376); assay: Inhibition of human LTK assessed as residual activity at 1 uM using polyEY as substrate in presence of 33P-ATP by ProQinase assay relative to control
[4] = molecular target: Serine/threonine-protein kinase 24 (Homo sapiens) (UniProt Q9Y6E0); assay: Inhibition of MST3 (unknown origin) assessed as remaining activity at 1 uM by Kinome scan method relative to control
[5] = molecular target: Calcium/calmodulin-dependent protein kinase kinase 1 (Homo sapiens) (UniProt Q8N5S9); assay: Inhibition of CAMKK1 (unknown origin) assessed as remaining activity at 1 uM by Kinome scan method relative to control
[6] = molecular target: Tyrosine-protein kinase Fes/Fps (Homo sapiens) (UniProt P07332); assay: Inhibition of human FES assessed as residual activity at 1 uM using polyEY as substrate in presence of 33P-ATP by ProQinase assay relative to control
[7] = molecular target: Tyrosine-protein kinase BTK (Homo sapiens) (UniProt Q06187); assay: Inhibition of BTK (unknown origin) assessed as remaining activity at 1 uM by Kinome scan method relative to control
[8] = molecular target: NUAK family SNF1-like kinase 2 (Homo sapiens) (UniProt Q9H093); assay: Inhibition of human SNARK assessed as residual activity at 1 uM using histone H2B as substrate in presence of 33P-ATP by ProQinase assay relative to control
[9] = tested on: Leucine-rich repeat serine/threonine-protein kinase 2 (Homo sapiens), Q5S007 [R1441C]; assay: Inhibition of human LRRK2 R1441C mutant assessed as residual activity at 1 uM using RBER-CHKtide as substrate in presence of 33P-ATP by ProQinase assay relative to control
[10] = molecular target: Tyrosine-protein kinase Fer (Homo sapiens) (UniProt P16591); assay: Inhibition of human FER assessed as residual activity at 1 uM using polyEY as substrate in presence of 33P-ATP by ProQinase assay relative to control
[11] = molecular target: Focal adhesion kinase 1 (Homo sapiens) (UniProt Q05397); assay: Inhibition of human FAK (2 to 1052 residues) assessed as residual activity at 1 uM using polyEY as substrate in presence of 33P-ATP by ProQinase assay relative to control
[12] = tested on: Epidermal growth factor receptor (Homo sapiens), P00533 [UNDEFINED MUTATION]; assay: Inhibition of EGFR S752-I759del mutant (unknown origin) assessed as remaining activity at 1 uM by Kinome scan method relative to control
[13] = molecular target: Ribosomal protein S6 kinase beta-2 (Homo sapiens) (UniProt Q9UBS0); assay: Inhibition of human S6K-beta assessed as residual activity at 1 uM using RBER-CHKtide as substrate in presence of 33P-ATP by ProQinase assay relative to control
[14] = molecular target: Mitogen-activated protein kinase kinase kinase kinase 5 (Homo sapiens) (UniProt Q9Y4K4); assay: Inhibition of MAP4K5 (unknown origin) assessed as remaining activity at 1 uM by Kinome scan method relative to control

Sequence of Tyrosine-protein kinase Fes/Fps (Homo sapiens) (P07332 whole entry): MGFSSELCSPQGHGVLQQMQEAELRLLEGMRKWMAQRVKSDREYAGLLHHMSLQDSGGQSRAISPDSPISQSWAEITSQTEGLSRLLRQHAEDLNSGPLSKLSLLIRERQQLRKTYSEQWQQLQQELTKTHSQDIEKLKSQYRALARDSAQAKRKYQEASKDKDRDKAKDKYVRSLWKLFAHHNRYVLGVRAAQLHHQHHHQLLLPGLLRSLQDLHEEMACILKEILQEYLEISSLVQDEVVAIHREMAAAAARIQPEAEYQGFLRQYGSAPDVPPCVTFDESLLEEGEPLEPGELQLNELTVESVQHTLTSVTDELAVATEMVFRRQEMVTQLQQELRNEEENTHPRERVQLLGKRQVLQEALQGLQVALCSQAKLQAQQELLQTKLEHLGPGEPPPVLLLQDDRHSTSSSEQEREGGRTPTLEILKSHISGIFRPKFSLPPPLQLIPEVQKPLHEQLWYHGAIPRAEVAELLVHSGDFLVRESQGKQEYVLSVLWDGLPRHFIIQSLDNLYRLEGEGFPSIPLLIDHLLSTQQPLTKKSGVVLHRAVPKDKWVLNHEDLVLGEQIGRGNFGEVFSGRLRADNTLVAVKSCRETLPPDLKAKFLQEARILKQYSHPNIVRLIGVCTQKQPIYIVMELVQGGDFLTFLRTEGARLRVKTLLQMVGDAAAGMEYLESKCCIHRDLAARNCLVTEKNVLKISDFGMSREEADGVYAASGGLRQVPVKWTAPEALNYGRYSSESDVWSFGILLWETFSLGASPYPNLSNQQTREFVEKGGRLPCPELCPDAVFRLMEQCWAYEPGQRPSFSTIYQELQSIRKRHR
Sequence of Leucine-rich repeat serine/threonine-protein kinase 2 (Homo sapiens), Q5S007 [R1441C] (Q5S007 whole entry R1441C): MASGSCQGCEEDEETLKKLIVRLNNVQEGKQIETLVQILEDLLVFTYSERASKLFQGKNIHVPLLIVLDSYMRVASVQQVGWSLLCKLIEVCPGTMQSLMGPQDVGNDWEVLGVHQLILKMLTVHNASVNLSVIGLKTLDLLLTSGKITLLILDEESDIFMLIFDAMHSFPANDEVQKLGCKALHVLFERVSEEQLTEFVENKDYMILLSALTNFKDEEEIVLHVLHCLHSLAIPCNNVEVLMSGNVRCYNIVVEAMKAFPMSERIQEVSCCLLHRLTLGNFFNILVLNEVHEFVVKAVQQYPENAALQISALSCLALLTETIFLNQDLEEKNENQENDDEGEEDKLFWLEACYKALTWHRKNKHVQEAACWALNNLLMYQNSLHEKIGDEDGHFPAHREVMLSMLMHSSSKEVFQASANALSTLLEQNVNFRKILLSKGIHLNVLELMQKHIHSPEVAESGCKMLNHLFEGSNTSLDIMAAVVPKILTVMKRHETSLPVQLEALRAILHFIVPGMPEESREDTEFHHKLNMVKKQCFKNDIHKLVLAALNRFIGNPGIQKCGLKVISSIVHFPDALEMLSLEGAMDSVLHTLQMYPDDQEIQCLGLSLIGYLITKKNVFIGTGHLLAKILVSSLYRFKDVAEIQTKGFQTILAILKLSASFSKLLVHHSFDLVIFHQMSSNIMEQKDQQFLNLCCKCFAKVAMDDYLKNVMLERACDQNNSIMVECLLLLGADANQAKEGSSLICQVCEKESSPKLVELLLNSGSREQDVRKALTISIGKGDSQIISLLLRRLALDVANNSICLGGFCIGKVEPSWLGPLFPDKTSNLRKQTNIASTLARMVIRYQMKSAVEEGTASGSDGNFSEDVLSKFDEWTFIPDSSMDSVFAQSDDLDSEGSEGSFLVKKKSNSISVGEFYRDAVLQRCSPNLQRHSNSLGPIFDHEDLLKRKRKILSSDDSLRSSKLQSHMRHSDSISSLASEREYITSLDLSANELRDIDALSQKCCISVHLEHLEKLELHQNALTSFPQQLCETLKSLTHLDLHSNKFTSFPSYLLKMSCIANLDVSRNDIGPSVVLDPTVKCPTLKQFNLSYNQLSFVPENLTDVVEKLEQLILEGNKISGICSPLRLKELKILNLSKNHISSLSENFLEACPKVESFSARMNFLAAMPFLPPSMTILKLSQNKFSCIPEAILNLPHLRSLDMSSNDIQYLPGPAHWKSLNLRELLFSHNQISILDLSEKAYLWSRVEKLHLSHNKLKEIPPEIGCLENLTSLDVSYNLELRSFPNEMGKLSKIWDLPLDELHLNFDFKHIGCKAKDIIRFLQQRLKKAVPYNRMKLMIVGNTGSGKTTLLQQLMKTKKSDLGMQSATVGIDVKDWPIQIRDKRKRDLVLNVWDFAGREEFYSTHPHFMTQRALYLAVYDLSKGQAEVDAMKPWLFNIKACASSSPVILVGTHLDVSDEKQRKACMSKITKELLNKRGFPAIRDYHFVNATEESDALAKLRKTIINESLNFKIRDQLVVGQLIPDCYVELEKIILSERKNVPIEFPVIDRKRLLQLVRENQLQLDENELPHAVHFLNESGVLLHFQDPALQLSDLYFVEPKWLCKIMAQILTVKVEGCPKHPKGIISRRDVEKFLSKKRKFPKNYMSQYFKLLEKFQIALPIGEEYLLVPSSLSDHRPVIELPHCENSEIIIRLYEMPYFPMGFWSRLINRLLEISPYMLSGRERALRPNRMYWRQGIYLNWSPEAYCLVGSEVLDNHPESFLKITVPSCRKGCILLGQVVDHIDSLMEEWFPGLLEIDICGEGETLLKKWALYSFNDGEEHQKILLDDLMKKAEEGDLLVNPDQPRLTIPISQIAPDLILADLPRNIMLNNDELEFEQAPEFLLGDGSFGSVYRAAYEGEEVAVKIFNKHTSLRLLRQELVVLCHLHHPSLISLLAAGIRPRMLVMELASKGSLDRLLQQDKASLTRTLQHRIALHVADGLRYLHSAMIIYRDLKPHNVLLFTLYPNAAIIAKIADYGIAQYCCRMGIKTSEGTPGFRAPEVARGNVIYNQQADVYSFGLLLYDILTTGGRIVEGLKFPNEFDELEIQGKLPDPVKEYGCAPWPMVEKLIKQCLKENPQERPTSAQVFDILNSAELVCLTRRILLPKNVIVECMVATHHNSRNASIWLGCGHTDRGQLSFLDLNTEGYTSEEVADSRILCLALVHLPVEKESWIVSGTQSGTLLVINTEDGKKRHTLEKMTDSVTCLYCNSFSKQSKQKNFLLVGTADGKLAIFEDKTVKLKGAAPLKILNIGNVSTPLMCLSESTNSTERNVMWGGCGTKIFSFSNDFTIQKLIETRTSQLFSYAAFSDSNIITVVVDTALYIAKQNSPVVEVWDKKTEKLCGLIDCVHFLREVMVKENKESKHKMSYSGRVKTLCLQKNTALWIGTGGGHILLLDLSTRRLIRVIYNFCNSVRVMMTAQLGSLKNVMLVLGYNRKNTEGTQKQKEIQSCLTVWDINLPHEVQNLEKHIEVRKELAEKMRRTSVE
Sequence of Tyrosine-protein kinase Fer (Homo sapiens) (P16591 whole entry, looked up, the tested form may be a part): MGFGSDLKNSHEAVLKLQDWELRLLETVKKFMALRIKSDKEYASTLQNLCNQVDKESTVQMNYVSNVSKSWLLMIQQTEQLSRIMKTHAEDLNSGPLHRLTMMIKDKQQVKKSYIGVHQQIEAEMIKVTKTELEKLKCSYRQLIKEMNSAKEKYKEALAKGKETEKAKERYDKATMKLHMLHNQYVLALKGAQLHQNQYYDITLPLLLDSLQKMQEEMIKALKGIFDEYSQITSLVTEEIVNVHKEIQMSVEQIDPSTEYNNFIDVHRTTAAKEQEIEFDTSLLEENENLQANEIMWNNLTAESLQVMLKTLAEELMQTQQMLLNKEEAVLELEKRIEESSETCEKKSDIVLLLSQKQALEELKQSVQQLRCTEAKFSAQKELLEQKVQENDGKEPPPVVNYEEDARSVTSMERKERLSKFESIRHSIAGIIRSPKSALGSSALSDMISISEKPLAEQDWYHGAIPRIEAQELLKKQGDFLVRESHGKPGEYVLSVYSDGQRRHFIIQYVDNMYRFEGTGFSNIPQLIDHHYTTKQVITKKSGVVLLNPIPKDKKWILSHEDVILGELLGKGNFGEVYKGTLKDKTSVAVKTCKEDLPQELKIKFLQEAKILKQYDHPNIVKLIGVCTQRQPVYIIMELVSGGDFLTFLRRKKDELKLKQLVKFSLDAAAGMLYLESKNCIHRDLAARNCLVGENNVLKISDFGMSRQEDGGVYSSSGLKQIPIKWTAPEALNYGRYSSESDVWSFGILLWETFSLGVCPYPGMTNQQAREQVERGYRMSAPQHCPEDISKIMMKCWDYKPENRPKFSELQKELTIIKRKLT
Sequence of Calcium/calmodulin-dependent protein kinase kinase 1 (Homo sapiens) (Q8N5S9 whole entry, looked up): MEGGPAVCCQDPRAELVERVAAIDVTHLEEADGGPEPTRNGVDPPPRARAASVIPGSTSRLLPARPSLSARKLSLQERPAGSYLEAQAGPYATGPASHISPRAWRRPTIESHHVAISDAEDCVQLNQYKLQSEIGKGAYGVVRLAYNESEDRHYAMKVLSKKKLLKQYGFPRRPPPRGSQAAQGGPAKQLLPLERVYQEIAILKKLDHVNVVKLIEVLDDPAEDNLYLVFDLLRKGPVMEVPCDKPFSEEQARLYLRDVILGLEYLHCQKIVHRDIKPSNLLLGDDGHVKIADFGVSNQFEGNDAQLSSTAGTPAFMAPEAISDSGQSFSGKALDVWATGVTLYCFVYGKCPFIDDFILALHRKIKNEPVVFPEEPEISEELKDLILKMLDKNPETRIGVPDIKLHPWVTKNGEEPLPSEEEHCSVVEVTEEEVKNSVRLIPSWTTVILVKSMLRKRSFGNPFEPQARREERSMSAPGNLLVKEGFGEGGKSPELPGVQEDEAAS
Sequence of Serine/threonine-protein kinase 24 (Homo sapiens) (Q9Y6E0 whole entry, looked up): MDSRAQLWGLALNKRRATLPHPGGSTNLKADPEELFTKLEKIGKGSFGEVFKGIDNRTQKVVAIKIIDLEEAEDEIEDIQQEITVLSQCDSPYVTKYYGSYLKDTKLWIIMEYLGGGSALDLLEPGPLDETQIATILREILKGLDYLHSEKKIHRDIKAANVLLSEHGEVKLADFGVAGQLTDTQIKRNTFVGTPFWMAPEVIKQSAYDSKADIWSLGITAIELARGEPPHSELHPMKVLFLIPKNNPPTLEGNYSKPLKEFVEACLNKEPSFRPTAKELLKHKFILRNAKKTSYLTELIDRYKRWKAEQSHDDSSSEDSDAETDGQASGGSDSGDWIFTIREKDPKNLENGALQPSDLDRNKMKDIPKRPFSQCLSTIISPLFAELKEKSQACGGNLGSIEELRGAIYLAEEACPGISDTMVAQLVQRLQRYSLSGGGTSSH

O=C1c2ccc(Nc3ccc(F)cc3F)cc2CCc2ccc(OC[C@H](O)CO)cc21 [Skepinone-L]
Activity [1]: 91% | Activity [2]: 100% | Activity [3]: 97% | Activity [4]: 100% | Activity [5]: 100% | Activity [6]: 121% | Activity [7]: 100% | Activity [8]: 115% | Activity [9]: 89% | Activity [10]: 101% | Activity [11]: 113% | Activity [12]: 100% | Activity [13]: 89% | Activity [14]: 100%
